These are literature values, as cited in patent publication US20050201943A1, “Magnetic resonance imaging using contrast agents bioactivated by enzymatic cleavage” (Epix Medical, Inc.,. a Delaware corporation, priority 2000, published 2005).

By Km is commonly meant the concentration of substrate that gives half-maximal velocity. As a reminder, the kcat is the number of substrate molecules converted per active site and unit of time at saturation.

For one series, the target named is T1, TAFI (Homo sapiens, UniProt Q96IY4).
T1 sequence (Q96IY4 115-423): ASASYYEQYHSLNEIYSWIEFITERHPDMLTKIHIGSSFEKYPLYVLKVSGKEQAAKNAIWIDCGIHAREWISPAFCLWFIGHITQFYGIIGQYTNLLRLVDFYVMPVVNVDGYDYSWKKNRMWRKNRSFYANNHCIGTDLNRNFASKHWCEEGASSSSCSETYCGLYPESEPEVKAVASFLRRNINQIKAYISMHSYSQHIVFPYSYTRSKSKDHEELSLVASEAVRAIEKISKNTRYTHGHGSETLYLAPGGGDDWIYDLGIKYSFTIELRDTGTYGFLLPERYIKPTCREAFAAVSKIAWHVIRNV
To be noted: other TAFI substrate, given for comparison.

The target of series [1] is human serum albumin (HSA) (Homo sapiens, UniProt P02768). The following applies: bound to HSA versus unbound in aqueous solution.

Residues, ends and D or L forms follow the SMILES beside them. *: point of attachment. Bz = O=C(c1ccccc1)*

Sequence of human serum albumin (HSA) (P02768 25-609): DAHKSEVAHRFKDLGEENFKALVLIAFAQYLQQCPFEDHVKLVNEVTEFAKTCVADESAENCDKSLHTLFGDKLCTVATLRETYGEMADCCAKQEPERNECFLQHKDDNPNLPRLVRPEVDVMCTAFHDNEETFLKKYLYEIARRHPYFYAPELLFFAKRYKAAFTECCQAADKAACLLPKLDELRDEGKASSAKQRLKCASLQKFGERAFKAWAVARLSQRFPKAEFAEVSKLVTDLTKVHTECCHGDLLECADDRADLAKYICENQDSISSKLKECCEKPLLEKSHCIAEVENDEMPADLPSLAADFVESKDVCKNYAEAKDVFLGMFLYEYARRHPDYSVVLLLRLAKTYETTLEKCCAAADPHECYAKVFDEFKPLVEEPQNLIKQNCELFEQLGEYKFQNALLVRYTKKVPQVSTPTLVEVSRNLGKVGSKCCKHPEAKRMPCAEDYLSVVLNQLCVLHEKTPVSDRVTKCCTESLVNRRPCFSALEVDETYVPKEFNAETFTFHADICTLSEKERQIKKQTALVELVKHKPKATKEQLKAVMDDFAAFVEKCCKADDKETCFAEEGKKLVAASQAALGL

Consider `N=C(N)NCCC[C@H](NC(=O)CNC(=O)c1ccccc1)C(=O)O` [hippuryl arginine] (Bz-Gly-Arg-OH), for which, on TAFI, the Km was 140 µM and the turnover number (kcat) is 21 s⁻¹. On to `O=C([O-])CN(CCN(CC(=O)[O-])C[C@H](COP(=O)([O-])OC1CCC(c2ccccc2)(c2ccccc2)CC1)N(CC(=O)[O-])CC(=O)[O-])CC(=O)[O-].[Gd+3].[H+].[H+].[H+]` [MS-325], for which the “increase in relaxivity of the protein-bound form compared to the unbound contrast agent” value in series [1] is on record as “seven to eight times”.
